In patent US12187773B2, “Modified GIP peptide analogues” (Antag Therapeutics ApS, priority 2018, dated 2025):
pIC50: −log10 of the molar value. *1 amine or outer side, *2 acyl side, *3 side chain or, on linkers, in order; H or OH if unused. Where a SMILES comes first, the peptide text is derived from it. Side-chain parts run from the residue outwards. [ ]: non-standard residue; d: D form. The star is where a group is joined. C18 diacid = O=C(O)CCCCCCCCCCCCCCCCC(=O)*; C16 diacid = O=C(O)CCCCCCCCCCCCCCC(=O)*; γGlu = O=C(O)[C@H](CCC(=O)[*:2])N[*:1]; pGlu = O=C1CC[C@@H](C(=O)O)N1; AEEA = NCCOCCOCC(=O)O

Columns and labels:
secretin receptor (SCTR) = molecular target: T1, secretin receptor (SCTR) (Homo sapiens, UniProt P47872); assay: cAMP assay - selectivity, antagonism at secretin receptor; assay type: cell-based; conditions: Table 3B; COS-7 cells; agonist secretin
T1 construct: expressed in transfected cells; host or cells: COS-7 (transient)
T1 sequence (P47872 23-440, species assumed): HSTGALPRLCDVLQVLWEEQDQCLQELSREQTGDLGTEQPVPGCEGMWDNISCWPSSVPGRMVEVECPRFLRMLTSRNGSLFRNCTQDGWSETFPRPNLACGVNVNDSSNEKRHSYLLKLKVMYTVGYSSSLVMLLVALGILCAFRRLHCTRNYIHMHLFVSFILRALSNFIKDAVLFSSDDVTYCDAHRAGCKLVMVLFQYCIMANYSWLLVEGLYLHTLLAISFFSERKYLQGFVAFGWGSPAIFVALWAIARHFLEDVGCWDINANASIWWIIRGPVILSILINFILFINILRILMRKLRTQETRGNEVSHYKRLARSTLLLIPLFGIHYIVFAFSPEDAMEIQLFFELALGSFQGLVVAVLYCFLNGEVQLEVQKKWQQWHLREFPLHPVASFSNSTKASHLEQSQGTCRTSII
Description: Transient transfected COS-7 cells expressing the either of the GLP1 receptor (GLP1R), GLP2 receptor (GLP2R), glucagon receptor (GcgR) or secretin receptor (SCTR) were seeded in white 96-well plates with a density of 3.5*10^4/well. The day after, the cells were washed twice with Hepes buffered saline (HBS) buffer and incubated with HBS and 1 mM 3-isobutyl-1-methylxanthine (IBMX) for 30 min at 37° C. To test for agonistic properties, ligands were added and incubated for 30 min at 37° C. In order to test for antagonistic properties, the cells were preincubated with the antagonists for 10 min prior to the addition the natural agonist for the expressed receptor (GLP1 for GLP1R expressing cells, GLP2 for GLP2R expressing cells, glucagon for the GcgR and secretin for the SCTR) and subsequent incubated for 20 additional min. […] The HitHunter™ cAMP XS assay (DiscoveRx) was carried out according to the manufacturer's instructions.

human GIP receptor = molecular target: T2, human GIP receptor (Homo sapiens, UniProt P48546); assay: cAMP accumulation, antagonism (DiscoveRx HitHunter cAMP XS assay); assay type: cell-based; parameters: host or cells: COS-7 (transient, calcium phosphate; pCMV-Script vector); conditions: for cAMP antagonism, % inhib / IC50: Table 1B; for cAMP antagonism, % inhib / GIPR, Antagonism, % inhib / IC50: DiscoveRx; for cAMP antagonism, % inhib / GIPR, Antagonism, % inhib: COS-7 cells; for cAMP antagonism, % inhib: % inhibition of Emax; for GIPR, Antagonism, % inhib: Table 3A/3B; for IC50: cAMP antagonism, nM (IC50), transiently transfected COS-7 cells; for pIC50: IC50-value (GIPR antagonism), Examples 1 and 2, values of Tables 1B and 2
T2 sequence (P48546 22-466): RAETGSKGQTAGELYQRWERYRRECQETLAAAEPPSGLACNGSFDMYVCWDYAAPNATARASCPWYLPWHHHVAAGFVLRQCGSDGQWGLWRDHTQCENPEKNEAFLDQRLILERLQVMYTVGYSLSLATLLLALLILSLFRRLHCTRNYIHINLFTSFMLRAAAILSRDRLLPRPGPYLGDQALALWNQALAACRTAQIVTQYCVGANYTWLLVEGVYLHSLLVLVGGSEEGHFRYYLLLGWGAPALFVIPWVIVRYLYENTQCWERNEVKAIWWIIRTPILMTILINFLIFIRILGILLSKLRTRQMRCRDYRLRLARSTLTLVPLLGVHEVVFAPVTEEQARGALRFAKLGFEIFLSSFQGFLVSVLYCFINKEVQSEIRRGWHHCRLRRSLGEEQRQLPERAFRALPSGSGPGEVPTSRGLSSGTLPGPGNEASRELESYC
In short: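 cAMP accumulation measured by HitHunter cAMP XS in COS-7 cells transiently expressing human GIP receptor, after 30 min in HBS with 1 mM IBMX at 37 °C. Antagonists preincubated 10 min before GIP giving 50-80% of maximum, then 20 min more; agonist mode used 30 min ligand exposure.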

| Compound | Secretin R, Antagonism (secretin receptor (SCTR)) | cAMP antagonism, % inhib (human GIP receptor) | GIPR, Antagonism, % inhib (human GIP receptor) | IC50 (human GIP receptor) | pIC50 (human GIP receptor) |
| --- | --- | --- | --- | --- | --- |
| CC[C@H](C)[C@H](NC(=O)[C@H](CO)NC(=O)[C@H](Cc1ccc(O)cc1)NC(=O)[C@H](CC(=O)O)NC(=O)[C@H](CO)NC(=O)[C@@H](NC(=O)[C@H](Cc1ccccc1)NC(=O)[C@@H](NC(=O)CNC(=O)[C@@H]1CCC(=O)N1)[C@@H](C)O)[C@@H](C)CC)C(=O)N[C@@H](C)C(=O)N[C@@H](CCSC)C(=O)N[C@@H](CC(=O)O)C(=O)N[C@@H](CCCNC(=N)N)C(=O)N[C@H](C(=O)N[C@@H](CCCCNC(=O)COCCOCCNC(=O)COCCOCCNC(=O)COCCOCCNC(=O)CC[C@H](NC(=O)CCCCCCCCCCCCCCCCC(=O)O)C(=O)O)C(=O)N[C@@H](CCC(N)=O)C(=O)N[C@@H](CCC(N)=O)C(=O)N[C@@H](CC(=O)O)C(=O)N[C@@H](Cc1ccccc1)C(=O)N[C@H](C(=O)N[C@@H](CC(N)=O)C(=O)N[C@@H](Cc1c[nH]c2ccccc12)C(=O)N[C@@H](CC(C)C)C(=O)N[C@@H](CC(C)C)C(=O)N[C@@H](C)C(=O)N[C@@H](CCC(N)=O)C(=O)N[C@@H](CCCNC(=N)N)C(N)=O)C(C)C)[C@@H](C)CC [AT382] ([pGlu]GTFISDYSIAMDRIK([AEEA-AEEA-AEEA-γGlu-C18 diacid])QQDFVNWLLAQR-NH2) | No antagonism | 100% | 100.0% | 2 nM |  |
| CC[C@H](C)[C@H](NC(=O)[C@H](CO)NC(=O)[C@H](Cc1ccc(O)cc1)NC(=O)[C@H](CC(=O)O)NC(=O)[C@H](CO)NC(=O)[C@@H](NC(=O)[C@H](Cc1ccccc1)NC(=O)[C@@H](NC(=O)CNC(=O)[C@@H](N)CO)[C@@H](C)O)[C@@H](C)CC)C(=O)N[C@@H](C)C(=O)N[C@@H](CCSC)C(=O)N[C@@H](CC(=O)O)C(=O)N[C@@H](CCCNC(=N)N)C(=O)N[C@H](C(=O)N[C@@H](CCCCNC(=O)COCCOCCNC(=O)COCCOCCNC(=O)COCCOCCNC(=O)CC[C@H](NC(=O)CCCCCCCCCCCCCCC(=O)O)C(=O)O)C(=O)N[C@@H](CCC(N)=O)C(=O)N[C@@H](CCC(N)=O)C(=O)N[C@@H](CC(=O)O)C(=O)N[C@@H](Cc1ccccc1)C(=O)N[C@H](C(=O)N[C@@H](CC(N)=O)C(=O)N[C@@H](Cc1c[nH]c2ccccc12)C(=O)N[C@@H](CC(C)C)C(=O)N[C@@H](CC(C)C)C(=O)N[C@@H](C)C(=O)N[C@@H](CCC(N)=O)C(=O)N[C@@H](CCCNC(=N)N)C(N)=O)C(C)C)[C@@H](C)CC [AT383] (H-SGTFISDYSIAMDRIK([AEEA-AEEA-AEEA-γGlu-C16 diacid])QQDFVNWLLAQR-NH2; N-terminus assumed) | No antagonism | 100% | 100.0% | 1 nM |  |
| CC[C@H](C)[C@H](NC(=O)[C@H](CO)NC(=O)[C@H](Cc1ccc(O)cc1)NC(=O)[C@H](CC(=O)O)NC(=O)[C@H](CO)NC(=O)[C@@H](NC(=O)[C@H](Cc1ccccc1)NC(=O)[C@@H](NC(=O)CNC(=O)[C@@H](N)CO)[C@@H](C)O)[C@@H](C)CC)C(=O)N[C@@H](C)C(=O)N[C@@H](CCSC)C(=O)N[C@@H](CC(=O)O)C(=O)N[C@@H](CCCNC(=N)N)C(=O)N[C@H](C(=O)N[C@@H](CCCCNC(=O)COCCOCCNC(=O)COCCOCCNC(=O)CC[C@H](NC(=O)CCCCCCCCCCCCCCCCC(=O)O)C(=O)O)C(=O)N[C@@H](CCC(N)=O)C(=O)N[C@@H](CCC(N)=O)C(=O)N[C@@H](CC(=O)O)C(=O)N[C@@H](Cc1ccccc1)C(=O)N[C@H](C(=O)N[C@@H](CC(N)=O)C(=O)N[C@@H](Cc1c[nH]c2ccccc12)C(=O)N[C@@H](CC(C)C)C(=O)N[C@@H](CC(C)C)C(=O)N[C@@H](C)C(=O)N[C@@H](CCC(N)=O)C(=O)N[C@@H](CCCNC(=N)N)C(N)=O)C(C)C)[C@@H](C)CC [AT384] (H-SGTFISDYSIAMDRIK([AEEA-AEEA-γGlu-C18 diacid])QQDFVNWLLAQR-NH2; N-terminus assumed) | No antagonism | 100% | 100.0% | 8 nM | 8.10 |
| CC[C@H](C)[C@H](NC(=O)[C@H](CO)NC(=O)[C@H](Cc1ccc(O)cc1)NC(=O)[C@H](CC(=O)O)NC(=O)[C@H](CO)NC(=O)[C@@H](NC(=O)[C@H](Cc1ccccc1)NC(=O)[C@@H](NC(=O)CNC(=O)[C@@H](N)CO)[C@@H](C)O)[C@@H](C)CC)C(=O)N[C@@H](C)C(=O)N[C@@H](CCSC)C(=O)N[C@@H](CC(=O)O)C(=O)N[C@@H](CCCNC(=N)N)C(=O)N[C@H](C(=O)N[C@@H](CCCCNC(=O)COCCOCCNC(=O)COCCOCCNC(=O)COCCOCCNC(=O)CC[C@H](NC(=O)CCCCCCCCCCCCCCCCC(=O)O)C(=O)O)C(=O)N[C@@H](CCC(N)=O)C(=O)N[C@@H](CCC(N)=O)C(=O)N[C@@H](CC(=O)O)C(=O)N[C@@H](Cc1ccccc1)C(=O)N[C@H](C(=O)N[C@@H](CC(N)=O)C(=O)N[C@@H](Cc1c[nH]c2ccccc12)C(=O)N[C@@H](CC(C)C)C(=O)N[C@@H](CC(C)C)C(=O)N[C@@H](C)C(=O)N[C@@H](CCC(N)=O)C(=O)N[C@@H](CCCNC(=N)N)C(N)=O)C(C)C)[C@@H](C)CC [AT385] (H-SGTFISDYSIAMDRIK([AEEA-AEEA-AEEA-γGlu-C18 diacid])QQDFVNWLLAQR-NH2; N-terminus assumed) | No antagonism | 100% | 100.0% | 4 nM | 8.40 |
| CC[C@H](C)[C@H](NC(=O)[C@H](CO)NC(=O)[C@H](Cc1ccc(O)cc1)NC(=O)[C@H](CC(=O)O)NC(=O)[C@H](CO)NC(=O)[C@@H](NC(=O)[C@H](Cc1ccccc1)NC(=O)[C@@H](NC(=O)CNC(=O)[C@@H](N)CO)[C@@H](C)O)[C@@H](C)CC)C(=O)N[C@@H](C)C(=O)N[C@@H](CCSC)C(=O)N[C@@H](CC(=O)O)C(=O)N[C@@H](CCCNC(=N)N)C(=O)N[C@H](C(=O)N[C@@H](CCCCNC(=O)CCCCCCCCCCCCCCCCC(=O)O)C(=O)N[C@@H](CCC(N)=O)C(=O)N[C@@H](CCC(N)=O)C(=O)N[C@@H](CC(=O)O)C(=O)N[C@@H](Cc1ccccc1)C(=O)N[C@H](C(=O)N[C@@H](CC(N)=O)C(=O)N[C@@H](Cc1c[nH]c2ccccc12)C(=O)N[C@@H](CC(C)C)C(=O)N[C@@H](CC(C)C)C(=O)N[C@@H](C)C(=O)N[C@@H](CCC(N)=O)C(=O)N[C@@H](CCCNC(=N)N)C(N)=O)C(C)C)[C@@H](C)CC [AT393] (H-SGTFISDYSIAMDRIK(C18 diacid)QQDFVNWLLAQR-NH2; N-terminus assumed) | No antagonism | 100% | 100.0% | 1 nM | 9.00 |
